Experimental data as given in PubChem BioAssay (NCI).
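The compound was tested at five concentrations on cells cultured in 96-well plates, with a 48-hour exposure period. At the GI50, growth is halved. TGI marks complete inhibition of growth.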

Key:
Assay in all cases: NCI anticancer screen, dose series, 48 h
BT-549 breast = tested on: BT-549 breast
CAKI-1 renal = tested on: CAKI-1 renal
EKVX NSCLC = tested on: EKVX NSCLC
HL-60(TB) leukemia = tested on: HL-60(TB) leukemia
K-562 leukemia = tested on: K-562 leukemia
M14 melanoma = tested on: M14 melanoma
MALME-3M melanoma = tested on: MALME-3M melanoma
MDA-MB-435 = tested on: MDA-MB-435
SK-MEL-28 melanoma = tested on: SK-MEL-28 melanoma
HCC-2998 colon = tested on: HCC-2998 colon

SMILES	GI50 (BT-549 breast)	TGI (BT-549 breast)	GI50 (CAKI-1 renal)	TGI (CAKI-1 renal)	GI50 (EKVX NSCLC)	TGI (EKVX NSCLC)	GI50 (HL-60(TB) leukemia)	TGI (HL-60(TB) leukemia)	GI50 (K-562 leukemia)	TGI (K-562 leukemia)	GI50 (M14 melanoma)	TGI (M14 melanoma)	GI50 (MALME-3M melanoma)	TGI (MALME-3M melanoma)	GI50 (MDA-MB-435)	TGI (MDA-MB-435)	GI50 (SK-MEL-28 melanoma)	TGI (SK-MEL-28 melanoma)	GI50 (HCC-2998 colon)	TGI (HCC-2998 colon)
COc1cc2c(Nc3ccc(-c4ccc(N)cc4)cc3)ncnc2c(OC)c1OC	7.99 µM	55 µM	0.655 µM	> 56.5 µM	5.4 µM	> 100 µM	2.54 µM	20.4 µM	0.521 µM	> 100 µM	0.542 µM	> 67.1 µM	22.4 µM	> 92.2 µM	0.752 µM	47.1 µM	11.9 µM	> 100 µM		
CC1(C)N=C(N)N=C(N)N1c1ccc(OCC(=O)Nc2ccc(S(=O)(=O)F)cc2Cl)c(Cl)c1	58.4 µM	> 100 µM			> 100 µM	> 100 µM	1.46 µM	> 100 µM	0.594 µM	> 100 µM	5.01 µM	> 100 µM	33.8 µM	> 100 µM	3.36 µM	> 100 µM	37.6 µM	> 100 µM	23.2 µM	> 100 µM
COc1ccc(OC)c(C2=C(c3cn(C)c4ccccc34)C(=O)NC2=O)c1	> 25 µM	> 25 µM	> 25 µM	> 25 µM			> 18.8 µM	> 25 µM	17.1 µM	> 25 µM	> 25 µM	> 25 µM	> 25 µM	> 25 µM	8.6 µM	> 25 µM	> 25 µM	> 25 µM	> 25 µM	> 25 µM
COc1cccc(C(=O)NNc2nc(Cl)nc(N3CCN(C(c4ccccc4)c4ccccc4)CC3)n2)c1	1.63 µM	3.31 µM	1.87 µM	4.31 µM	5.76 µM	20 µM	6.29 µM	43.9 µM			1.7 µM	3.53 µM	1.7 µM	3.78 µM	3.96 µM	14.2 µM	2.21 µM	5.38 µM	1.77 µM	3.43 µM
CC(=O)OC(COc1ccc2c(c1)[n+]([O-])nc(N)[n+]2[O-])CN1CCCCC1 (configuration not stated)		> 100 µM		> 100 µM				26.9 µM		38.5 µM		38.7 µM		24.2 µM		> 100 µM		> 100 µM		22.5 µM
CCOC(=O)c1c(-c2ccccc2)n2c(=O)cc(C)c3c(O)c(O)cc1c32	7.08 µM	24.1 µM	9.84 µM	36.2 µM	8.73 µM	24.3 µM	3.34 µM	10.8 µM	6.93 µM	22.7 µM	5.84 µM	20.2 µM	13.7 µM	33.6 µM	15.7 µM	> 100 µM	12.7 µM	29.3 µM		
CO/N=C(/C)COc1ccc2c(c1)oc(=O)c1cc(OC)ccc12	> 100 µM	> 100 µM	97.6 µM	> 100 µM	> 100 µM	> 100 µM			> 100 µM	> 100 µM	> 100 µM	> 100 µM	> 100 µM	> 100 µM	> 100 µM	> 100 µM	> 100 µM	> 100 µM	> 100 µM	> 100 µM
